From patent US4318916A, “Antibiotic PS-5 and derivatives having β-lactamase inhibitory activity and production thereof” (Sanraku-Ocean Co., Ltd., priority 1977, dated 1982)
Like-named read-outs stand apart in the source and are kept apart here.

Tests used:
[1] = tested on: Serratia marcescens S-18; test: Potentiation disc assay with penicillin G (Table 9); assay type: cell-based; settings: for Inhibition zone With pen. G: 50 μg/ml penicillin G in agar
Procedure: (§1) (A) Ten milliliters of molten nutrient agar containing 50 μg/ml of penicillin G or cephaloridine, 0.8% of Kyokuto Nutrient Broth Powder and 1.0% of Difco Bacto-Agar (pH 7.0) were seeded with the beta-lactam-resistant, beta-lactamase-producing microorganisms indicated in Tables 9 and 10, and poured in a 9-cm Petri dish to provide the bio-assay agar plate. On this assay plate, 8-mm pulp discs containing 25 μl each of antibiotic PS-5 solutions at the indicated concentrations were placed and incubated at 35° C. for 18 hours before reading the inhibition zones. The control assay plate was similarly prepared without penicillin G nor cephaloridine. As reference antibiotics, penicillin G, ampicillin, oxacillin and cefazolin were disc-assayed under the same conditions.

[2] = pH and heat stability of antibiotic PS-5 in aqueous solution; assay type: physicochemical; settings: for remaining at 0.25 h: water, pH 9, at least 15 min of heating at 60° C., aqueous solution, around neutral to weakly alkaline pH below pH 9
[3] = tested on: Proteus vulgaris P-5; test: Filter paper strip synergism test; assay type: cell-based; settings: Proteus vulgaris P-5 (beta-lactamase producer); crossed filter paper strips, 18 hours at 35° C.
Procedure: On an assay plate of nutrient agar seeded by a beta-lactam-resistant strain of Proteus vulgaris P-5 (beta-lactamase producer), two filter paper strips containing penicillin G or cephaloridine and two strips containing antibiotic PS-5 were applied to form a square where two strips of the […] antibiotic were contacted at one corner. The antimicrobial activity was read after incubation for 18 hours at 35° C. When suitable concentrations of penicillin G or cephaloridine and antibiotic PS-5 were chosen, the inhibition area was observed only at the corners where both antibiotic PS-5 and penicillin G or cephaloridine were present, but not at the corners where antibiotic PS-5, penicillin G or cephaloridine was solely present. […] That is, when two kinds of compounds were combined at concentrations that were low enough not to give an inhibition zone with a component alone, the large inhibition thus appearing with the combination was due to synergism.

[4] = tested on: Proteus vulgaris P-5; test: Potentiation disc assay with cephaloridine (Table 10); assay type: cell-based; settings: Proteus vulgaris P-5; for Inhibition zone With CER: 50 μg/ml cephaloridine in agar
Procedure: as §1

[5] = tested on: Enterobacter sp. E-18; test: as above; assay type: cell-based; settings: for Inhibition zone With CER: 50 μg/ml cephaloridine in agar
Procedure: as §1

[6] = tested on: Serratia marcescens; test: as above; assay type: cell-based; settings: for Inhibition zone With CER: 50 μg/ml cephaloridine in agar
Procedure: as §1

[7] = tested on: Citrobacter freundii E-9; test: as above; assay type: cell-based; settings: for Inhibition zone With CER: 50 μg/ml cephaloridine in agar
Procedure: as §1

[8] = Solubility of trityl ester of antibiotic PS-5; assay type: physicochemical
Procedure: The solubility of the tritylation product of the antibiotic PS-5 was determined by dissolving under […] 5 mg each of the tritylation product of the antibiotic PS-5 in 0.1 ml each of the test solvents at 20° C.

[9] = tested on: Proteus vulgaris P-5; test: Potentiation disc assay of trityl ester (Table 14); assay type: cell-based; settings: for Halo of inhibition Cephaloridine added: 50 μg/ml cephaloridine in base agar
Procedure: (§2) (A) Assay Petri dishes (9 cm in diameter) containing resistant microorganisms were prepared by overlaying 10 ml of the molten nutrient agar seeded with beta-lactam-resistant (beta-lactamase-producing) microorganisms, on the solid base layer of nutrient agar (pH 7.0) (15 ml) containing 50 μg/ml of penicillin G or cephaloridine. As described before, the antibiotic solutions to be tested were applied in a 25 μl amount on an 8 mm pulp disc and placed on the said assay dishes. After incubation for 18 hours at 35° C., the inhibition halos were measured and compared with the results on the corresponding assay dished containing neither penicillin G nor cephaloridine. From the data in Table 14, it is very clear that the combination of the tritylation product of antibiotic PS-5 at a concentration below the lower limit of disc assay, with penicillin G or cephaloridine, at a concentration below said limit, produced a significant halo of inhibition. This fact clearly proves the potentiation of the antibiotic activity of penicillin G or cephaloridine with the tritylation product of antibiotic PS-5.

[10] = tested on: Proteus sp. P-22; test: Potentiation disc assay of trityl ester (Table 14); assay type: cell-based; settings: for Halo of inhibition Cephaloridine added: 50 μg/ml cephaloridine in base agar
Procedure: as §2

[11] = tested on: Citrobacter freundii E-9; test: Potentiation disc assay of trityl ester (Table 14); assay type: cell-based; settings: for Halo of inhibition Cephaloridine added: 50 μg/ml cephaloridine in base agar
Procedure: as §2

[12] = 5 mg in 0.1 ml solvent at 20° C.

Structure (SMILES): CCC1C(=O)N2C(C(=O)O)=C(SCCNC(C)=O)CC12 (single isomer, unassigned) [Antibiotic PS-5]
- Inhibition zone With pen. G ([1]; PS-5 79.5 μg/ml): 13.8 mm
- Inhibition zone With pen. G ([1]; PS-5 100 μg/ml): 16.1 mm
- Inhibition zone With pen. G ([1]; PS-5 159 μg/ml): 22.0 mm
- Inhibition zone With pen. G ([1]; PS-5 318 μg/ml): 22.1 mm
- zone of inhibition at 79.5 µg/mL ([1]; S18, 18 h, PS-5 79.5 μg/ml, read-out: Inhibition zone Without pen. G): 0 mm
- zone of inhibition at 100 µg/mL ([1]; S18, 18 h, PS-5 100 μg/ml, read-out: Inhibition zone Without pen. G): 13 mm
- zone of inhibition at 159 µg/mL ([1]; S18, 18 h, PS-5 159 μg/ml, read-out: Inhibition zone Without pen. G): 17.8 mm
- zone of inhibition at 318 µg/mL ([1]; S18, 18 h, PS-5 318 μg/ml, read-out: Inhibition zone Without pen. G): 21.3 mm
- remaining at 5 min ([2]; pH 3, pH 3.0 for 5 minutes at -17° C., read-out: Initial antibiotic activity still detected): ≥ 30%
- remaining at 0.25 h ([2]; read-out: Antibiotic activity remaining): ≥ 50%
- remaining at 0.25 h ([2]; usual value, read-out: Antibiotic activity remaining, usually): > 70%
- Synergism with penicillin G or cephaloridine [3]: synergism between the antibiotic PS-5 and penicillin G or cephaloridine
- zone of inhibition at 79.5 µg/mL ([4]; P5, 18 h, PS-5 79.5 μg/ml, read-out: Inhibition zone Without CER): 12.5 mm
- zone of inhibition at 100 µg/mL ([4]; P5, 18 h, PS-5 100 μg/ml, read-out: Inhibition zone Without CER): 13.7 mm
- zone of inhibition at 159 µg/mL ([4]; P5, 18 h, PS-5 159 μg/ml, read-out: Inhibition zone Without CER): 15.2 mm
- zone of inhibition at 318 µg/mL ([4]; P5, 18 h, PS-5 318 μg/ml, read-out: Inhibition zone Without CER): 18.5 mm
- Inhibition zone With CER ([4]; PS-5 79.5 μg/ml): 21.8 mm
- Inhibition zone With CER ([4]; PS-5 100 μg/ml): 22.0 mm
- Inhibition zone With CER ([4]; PS-5 159 μg/ml): 24.0 mm
- Inhibition zone With CER ([4]; PS-5 318 μg/ml): 25.2 mm
- Inhibition zone With CER ([5]; PS-5 79.5 μg/ml): 17.6 mm
- Inhibition zone With CER ([5]; PS-5 100 μg/ml): 18.0 mm
- Inhibition zone With CER ([5]; PS-5 159 μg/ml): 19.4 mm
- Inhibition zone With CER ([5]; PS-5 318 μg/ml): 21.9 mm
- zone of inhibition at 79.5 µg/mL ([5]; SP.E18, 18 h, PS-5 79.5 μg/ml, read-out: Inhibition zone Without CER): 15.1 mm
- zone of inhibition at 100 µg/mL ([5]; SP.E18, 18 h, PS-5 100 μg/ml, read-out: Inhibition zone Without CER): 16.1 mm
- zone of inhibition at 159 µg/mL ([5]; SP.E18, 18 h, PS-5 159 μg/ml, read-out: Inhibition zone Without CER): 18.2 mm
- zone of inhibition at 318 µg/mL ([5]; SP.E18, 18 h, PS-5 318 μg/ml, read-out: Inhibition zone Without CER): 21 mm
- zone of inhibition at 79.5 µg/mL ([6]; 18 h, PS-5 79.5 μg/ml, read-out: Inhibition zone Without CER): 14.8 mm
- zone of inhibition at 100 µg/mL ([6]; 18 h, PS-5 100 μg/ml, read-out: Inhibition zone Without CER): 16.8 mm
- zone of inhibition at 159 µg/mL ([6]; 18 h, PS-5 159 μg/ml, read-out: Inhibition zone Without CER): 17 mm
- zone of inhibition at 318 µg/mL ([6]; 18 h, PS-5 318 μg/ml, read-out: Inhibition zone Without CER): 21 mm
- Inhibition zone With CER ([6]; PS-5 79.5 μg/ml): 22.3 mm
- Inhibition zone With CER ([6]; PS-5 100 μg/ml): 23.3 mm
- Inhibition zone With CER ([6]; PS-5 159 μg/ml): 24.8 mm
- Inhibition zone With CER ([6]; PS-5 318 μg/ml): 26.1 mm
- zone of inhibition at 79.5 µg/mL ([7]; E9, 18 h, PS-5 79.5 μg/ml, read-out: Inhibition zone Without CER): 16 mm
- zone of inhibition at 100 µg/mL ([7]; E9, 18 h, PS-5 100 μg/ml, read-out: Inhibition zone Without CER): 17.4 mm
- zone of inhibition at 159 µg/mL ([7]; E9, 18 h, PS-5 159 μg/ml, read-out: Inhibition zone Without CER): 17.4 mm
- zone of inhibition at 318 µg/mL ([7]; E9, 18 h, PS-5 318 μg/ml, read-out: Inhibition zone Without CER): 22.5 mm
- Inhibition zone With CER ([7]; PS-5 79.5 μg/ml): 19.4 mm
- Inhibition zone With CER ([7]; PS-5 100 μg/ml): 21.6 mm
- Inhibition zone With CER ([7]; PS-5 159 μg/ml): 22.3 mm
- Inhibition zone With CER ([7]; PS-5 318 μg/ml): 24.6 mm

Structure (SMILES): CCC1C(=O)N2C(C(=O)OC(c3ccccc3)(c3ccccc3)c3ccccc3)=C(SCCNC(C)=O)CC12 (single isomer, unassigned) [Trityl PS-5]
- Solubility in benzene, ethyl acetate, chloroform, methanol, ethanol, acetone, DMF and DMSO [8, 12]: Highly soluble
- Solubility in water, n-hexane and petroleum ether [8, 12]: Substantially insoluble
- Solubility in benzene, ethyl acetate, chloroform, acetone and dimethyl sulfoxide ([8]; general description): soluble
- Solubility in water, hexane and petroleum ether ([8]; general description): substantially insoluble
- zone of inhibition at 42 µg/mL ([9]; P5, 18 h, Trityl PS-5 42 μg/ml, penicillin G series, read-out: Halo of inhibition Control): 0 mm
- zone of inhibition at 50 µg/mL ([9]; P5, 18 h, Trityl PS-5 50 μg/ml, cephaloridine series, read-out: Halo of inhibition Control): 0 mm
- zone of inhibition at 100 µg/mL ([9]; P5, 18 h, Trityl PS-5 100 μg/ml, cephaloridine series, read-out: Halo of inhibition Control): 11 mm
- Halo of inhibition Penicillin G added ([9]; Trityl PS-5 42 μg/ml, 50 μg/ml penicillin G in base agar): 27.0 mm
- Halo of inhibition Cephaloridine added ([9]; Trityl PS-5 50 μg/ml): 15.0 mm
- Halo of inhibition Cephaloridine added ([9]; Trityl PS-5 100 μg/ml): 18.0 mm
- zone of inhibition at 50 µg/mL ([10]; 18 h, Trityl PS-5 50 μg/ml, read-out: Halo of inhibition Control): 0 mm
- zone of inhibition at 100 µg/mL ([10]; 18 h, Trityl PS-5 100 μg/ml, read-out: Halo of inhibition Control): 0 mm
- Halo of inhibition Cephaloridine added ([10]; Trityl PS-5 50 μg/ml): 11.5 mm
- Halo of inhibition Cephaloridine added ([10]; Trityl PS-5 100 μg/ml): 13.5 mm
- zone of inhibition at 50 µg/mL ([11]; E9, 18 h, Trityl PS-5 50 μg/ml, read-out: Halo of inhibition Control): 13 mm
- zone of inhibition at 100 µg/mL ([11]; E9, 18 h, Trityl PS-5 100 μg/ml, read-out: Halo of inhibition Control): 16 mm
- Halo of inhibition Cephaloridine added ([11]; Trityl PS-5 50 μg/ml): 15.5 mm
- Halo of inhibition Cephaloridine added ([11]; Trityl PS-5 100 μg/ml): 18.0 mm
